Target: T1, IRAK4 (Homo sapiens, UniProt Q9NWZ3)
T1 construct: C-terminal HiBiT-tagged Jurkat cells (polyclonal cell line or clone 8D5); endogenous in cells; host or cells: Jurkat cells (polyclonal cell line or clone 8D5), HiBiT-tagged
T1 sequence (Q9NWZ3 1-460): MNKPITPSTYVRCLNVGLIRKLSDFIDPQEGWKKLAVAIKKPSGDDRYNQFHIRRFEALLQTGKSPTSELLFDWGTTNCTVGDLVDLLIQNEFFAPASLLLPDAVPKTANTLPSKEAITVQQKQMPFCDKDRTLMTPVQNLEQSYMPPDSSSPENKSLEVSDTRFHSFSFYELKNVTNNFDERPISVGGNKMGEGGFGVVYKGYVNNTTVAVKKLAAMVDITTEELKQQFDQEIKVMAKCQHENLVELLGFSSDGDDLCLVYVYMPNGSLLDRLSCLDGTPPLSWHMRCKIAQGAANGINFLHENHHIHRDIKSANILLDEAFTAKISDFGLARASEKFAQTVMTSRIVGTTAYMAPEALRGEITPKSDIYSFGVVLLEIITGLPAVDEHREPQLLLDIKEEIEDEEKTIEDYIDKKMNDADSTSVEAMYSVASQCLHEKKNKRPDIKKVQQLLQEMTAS
Assay: IRAK4 Degradation HiBit Assay
Type: cell-based
Conditions: C-terminal HiBiT-tagged Jurkat cells, 4 hrs incubation; for DC50: % IRAK4 remaining, four-parameter fit (IC50 used as DC50); for Dmax: from fit of % IRAK4 remaining, read-out: Dmax
Description: Compound dilution series (11-point, 3.16-fold dilutions in DMSO, columns 1-11 and 12-22) at 500× the final required concentrations were prepared in Labcyte LDV 384-well plates (cat. no. LP-0200) using a Labcyte Echo 550 Liquid Handler. The 500× solutions ranged from 5 mM to 0.5 μM (final assay concentration range 10 μM to 0.1 nM). Using the Echo, the 500× solutions were stamped into white, 384-well assay plates (Corning, cat. no. 3570) at 60 nL/well. The following assay plate controls were also stamped at 60 nL/well: DMSO in wells E23-P23 (NC, Negative Control, maximum signal), 5 mM solution control compound al in wells A23-D23 and M24-P24 (AC, Active Control, minimum signal/background, 10 μM final assay concentration), control compound al dilution series in wells […] (12-point, 4-fold dilutions). C-terminal HiBiT-tagged Jurkat cells (polyclonal cell line or clone 8D5) were plated at 1×10^6 cells/mL, 30 μL/well (3×10^4 cells/well) in complete RPMI (10% FBS, 1% L-glutamine). Cells were incubated for 4 hrs at 32° C./6% CO2. Compound al has the following structure:
Following incubation, 30 μL of complete Nano-Glo HiBiT Lytic Detection Reagent (Nano-Glo HiBiT Lytic Buffer with 1:50 Nano-Glo HiBiT Lytic Substrate and 1:100 LgBiT Protein; Promega cat. no. N3040) was added. Cells were further incubated for 10 min at room temperature (RT). Luminescence units (LU) were read on an EnVision plate reader (Perkin Elmer, 0.1 sec per well). Percent IRAK4 remaining per sample was calculated as follows: […]
Using Graphpad Prism, % IRAK4 remaining values were plotted as a function of compound concentration. To determine DC50 and Dmax values, resulting curves were fit to the Prism curve-fitting equation “log (inhibitor) vs response-Variable slope (four parameters)” (reported best fit value IC50 used as DC50). Table 1 summarizes the biological data of Compounds of Examples 1-137 and 142-145 obtained from the assays described herein.

Row | Structure (SMILES) | DC50 [nM] | Dmax [%]
1 | CC(C)Nc1cc(-c2ccc3cc(C#N)cnn23)ncc1-c1nnc(N2CC3CCC(C2)N3CC2CCN(c3ccc(N4CCC(=O)NC4=O)cn3)CC2)s1 [Example 73, 7-(5-{5-[8-({1-[5-(2,4-dioxo-1,3-diazinan-1-yl)pyridin-2-yl]piperidin-4-yl}methyl)-3,8-diazabicyclo[3.2.1]octan-3-yl]-1,3,4-thiadiazol-2-yl}-4-[(propan-2-yl)amino]pyridin-2-yl)pyrrolo[1,2-b]pyridazine-3-carbonitrile] | 29 | 105
2 | C[C@H](C#N)Nc1cc(-c2ccc3cc(C#N)cnn23)ncc1-c1nnc(N2CC3CCC(C2)N3CC2CCN(c3ccc([C@@H]4CCC(=O)NC4=O)cn3)CC2)s1 (single isomer, unassigned) [Example 135] | 5 | 108
3 | CC(C)Nc1cc(-c2ccc3cc(C#N)cnn23)ncc1-c1nnc(N2CCN(C(=O)CC3CCN(c4ccc(C5CCC(=O)NC5=O)cn4)CC3)CC2)s1 (racemic) [Example 19, rac-7-[5-(5-{4-[2-(1-{5-[(3R)-2,6-dioxopiperidin-3-yl]pyridin-2-yl}piperidin-4-yl)acetyl]piperazin-1-yl}-1,3,4-thiadiazol-2-yl)-4-[(propan-2-yl)amino]pyridin-2-yl]pyrrolo[1,2-b]pyridazine-3-carbonitrile] | 29 | 103
4 | CN(CC1CCN(c2ccc([C@@H]3CCC(=O)NC3=O)cn2)CC1)[C@H]1CC[C@H](c2nnc(-c3cnc(-c4ccc5cc(C#N)cnn45)cc3NC3CCOCC3)s2)CC1 (racemic) [Example 82, 7-{4-[(oxan-4-yl)amino]-5-{5-[(1r,4r)-4-{[(1-{5-[(3RS)-2,6-dioxopiperidin-3-yl]pyridin-2-yl}piperidin-4-yl)methyl](methyl)amino}cyclohexyl]-1,3,4-thiadiazol-2-yl}pyridin-2-yl}pyrrolo[1,2-b]pyridazine-3-carbonitrile] | 8 | 114
5 | N#CCNc1cc(-c2ccc3cc(C#N)cnn23)ncc1-c1nnc(N2CC3CCC(C2)N3CC2CCN(c3ccc([C@@H]4CCC(=O)NC4=O)cc3)CC2)s1 (single isomer, unassigned) [Example 128] | 6 | 111
6 | CNc1cc(-c2ccc3cc(C#N)cnn23)ncc1-c1nnc(N2CC3(CCN(CC4CCN(c5ccc(C6CCC(=O)NC6=O)cn5)CC4)CC3)C2)s1 (racemic) [Example 55, rac-7-[5-(5-{7-[(1-{5-[(3R)-2,6-dioxopiperidin-3-yl]pyridin-2-yl}piperidin-4-yl)methyl]-2,7-diazaspiro[3.5]nonan-2-yl}-1,3,4-thiadiazol-2-yl)-4-(methylamino)pyridin-2-yl]pyrrolo[1,2-b]pyridazine-3-carbonitrile] | 61 | 109
7 | N#Cc1cnn2c(-c3cc(NC4CC4)c(-c4nnc(N5CC6CCC(C5)N6CC5CCN(c6ccc(N7CCC(=O)NC7=O)cn6)CC5)s4)cn3)ccc2c1 [Example 115, 7-[4-(cyclopropylamino)-5-{5-[8-({1-[5-(2,4-dioxo-1,3-diazinan-1-yl)pyridin-2-yl]piperidin-4-yl}methyl)-3,8-diazabicyclo[3.2.1]octan-3-yl]-1,3,4-thiadiazol-2-yl}pyridin-2-yl]pyrrolo[1,2-b]pyridazine-3-carbonitrile] | 48 | 109

Further lines, results first:

Row | DC50 [nM] | Dmax [%] | Structure (SMILES)
8 | 100 | 111 | N#Cc1cnn2c(-c3cc(NC4CCOCC4)c(-c4nnc(N5CCN(CC6CCN(c7ccc([C@H]8CCC(=O)NC8=O)nc7)CC6)CC5)s4)cn3)ccc2c1 (single isomer, unassigned) [Example 116]
9 | 104 | 88 | N#Cc1cnn2c(-c3cc(N[C@@H]4CCOC4)c(-c4nnc(N5CCN(CC6CCN(c7ccc([C@H]8CCC(=O)NC8=O)cn7)CC6)CC5)s4)cn3)ccc2c1 (single isomer, unassigned) [Example 137]
10 | 22 | 112 | N#Cc1cnn2c(-c3cc(N[C@H]4CCOC4)c(-c4nnc(N5CCN(CC6CCN(c7ccc([C@@H]8CCC(=O)NC8=O)cn7)CC6)CC5)s4)cn3)ccc2c1 (single isomer, unassigned) [Example 130]

From patent US12570662B2, “Substituted pyrrolo[1,2-b]pyridazines as bifunctional degraders of interleukin-1 receptor-associated kinases” (Nurix Therapeutics, Inc., priority 2021, dated 2026)
